In US8304384B2, “Caspase-8 and inflammation, infection and wound healing” (Yeda Research and Development Co., Ltd, priority 2006, dated 2012):
“Also recorded” adds a separate entry of the source.

What was measured:
Kupffer cells [1] = assay: Gadolinium chloride treatment after partial hepatectomy (PHx) in Casp8F/-:Alb-Cre mice; type: in vivo; conditions: 1/3 PHx, 10 mg/kg i.p. on days 10 and 12 after PHx
Experimental: (iii) Partial Hepatectomy and Gadolinium Chloride Administration. Age-matched Casp8^F/−: Alb-Cre mice and Casp8^F/+: Alb-Cre mice were lightly anesthetized with intraperitoneally (i.p.) administered xylazine […] (Chanelle Pharmaceuticals Manufacturing, Loughrea, Galway, Ireland) and ketamine […] (Fort Dodge Animal Health, Fort Dodge, Iowa). It was performed ‘one-third’ (30%) PHx by excising the median lobe of the liver, and ‘two-thirds’ (70%) PHx by excising the median, left, and right upper lobes as described (Higgins et al., 1931 and Greene et al., 2003). Mice were imaged before PHx and afterwards on days 0-56 (every other day during the first week and weekly from then on). On days 10 and 12 after PHx the mice were injected i.p. with gadolinium chloride (Sigma-Aldrich, St. Louis, Mo.) in saline at a dosage of 10 mg/kg.
(iv) MRI Analysis Technique. Magnetic resonance imaging (MRI) experiments were performed using a horizontal 4.7 T Biospec spectrometer (Bruker Medical, Ettlingen, Germany) with a 4.2-cm birdcage coil. Mice were anesthetized (with pentobarbital 30 mg/kg, i.p.) and placed supine with the liver located at the center of the coil. Liver volume was determined from multi-slice coronal and axial T1-weighted spin echo images (repetition time=400 ms; echo time=18 ms; slice thickness=1 mm). In brief, the liver boundary visualized in each slice was outlined using image-processing software (NIH Image). […] The total liver volume was calculated as the summed area of all slices, multiplied by the slice thickness. For each mouse the liver volume was expressed as a percentage of the preoperative liver volume. […]
Cells expressing F4/80 were detected similarly, using rat anti-mouse F4/80 antibody (Serotec Oxford, UK), except that for antigen retrieval the paraffin sections were treated for 3 minutes at room temperature with a solution containing 20 mM Tris (pH 7.5), 0.1% trypsin, and 0.1% calcium chloride. The macrophage content of the livers was determined by quantifying the F4/80 positive areas in the slides using the ImageJ 1.37r software.

Kupffer cells [2] = conditions: stated as a known fact, no experiment of the patent described; cited from earlier work

## [Cl][Gd]([Cl])[Cl] [gadolinium chloride]
Kupffer cells [1]; 14th day after PHx, 10 mg/kg
  late (delayed) hepatocyte proliferation, anti-Ki67 stained nuclei in 10 high-power fields: practically wiped out the increase in hepatocyte proliferation; also recorded: arrest of the delayed hepatocyte proliferation
  liver volume / excessive increase in liver size (hepatomegaly), MRI scans: curtailed; also recorded: prevention of hepatomegaly
Kupffer cells [1]; liver examined 14 days after PHx
  inflammatory cells (macrophages, anti-F4/80 staining) accumulated in the liver: substantially decreasing the inflammatory cells that had accumulated
Kupffer cells [2]
  hepatocyte proliferation facilitated early after PHx: does not decrease, but rather is enhanced
